# Source: US20240041825A1, “SAROGLITAZAR AND MYRISTIC ACID FOR USE IN THE TREATMENT OF FOCAL SEGMENTAL GLOMERULOSCLEROSIS (FSGS)” (Delta 4 GmbH, priority 2020, published 2024)
# Test system: Adriamycin-induced FSGS in BALB/c mice
# Assay: Adriamycin induced nephropathy mouse model of FSGS (UPCR, UACR, histology)
# Type: in vivo
# Details: Experiment 1, FIG. 5; chow with 25 mg/kg saroglitazar and/or 625 mg/kg myristic acid from day 2
# Text: For biological testing of the shortlisted compounds, we chose accepted mouse models of FSGS such as the adriamycin induced nephropathy or miR-193a-overexpressing mice which suffer from FSGS due to suppression of Wilms' tumor 1 (WT1) gene (Gebeshuber et al., 2013). All animal experiments and handling were in accordance with the Austrian law for protection of animals and approved by the animal ethics committee of the Austrian ministry for science and research.
# Adriamycin-dependent nephropathy (active compound: doxorubicin) was induced by tail vein injection accepted doses of approx. 9 mg/kg mouse in 10 weeks old BALB/c mice. Control mice were injected with 0.9% saline. At least 6 mice were analyzed per group. Mice were monitored daily for signs of pain, altered movement, or reduced food uptake and sacrificed by cervical dislocation. […]
# Urinary albumin levels were assessed by ELISA, urinary total protein and urinary creatinine levels were measured on the Roche Cobas system, using routine laboratory kits. Urinary protein/creatinine (UPCR) ratio and urinary albumin/creatinine ratio (UACR) were assessed at different time points. Weight and physical fitness scores were monitored on a daily basis. […]
# Spot urine was collected every week and Creatinine and protein levels were measured.
# Urinary albumin was measured by ELISA. […]
row,Structure (SMILES),"effect on proteinuria (UPCR) versus control, in words"
1,CCO[C@@H](Cc1ccc(OCCn2c(C)ccc2-c2ccc(SC)cc2)cc1)C(=O)O [saroglitazar],able to ameliorate proteinuria to a certain extent
2,CCCCCCCCCCCCCC(=O)O [Myristic acid],did not reduce UPCR
